Test results taken from US20240360103A1, “COMPLEMENT INHIBITION” (Apellis Pharmaceuticals, Inc., priority 2021, published 2024).

What was measured:
C3 convertase (CVF:Bb) = C3 convertase (CVF:Bb) (Homo sapiens, UniProt P00751); assay: C3 Convertase Assay (biochemical assay, compound contacted with CVF:Bb, then C3 substrate added)
Source text: Various technologies are available for assessing provided compounds, compositions and methods. In some embodiments, a useful assay is an assay described below. […] In some embodiments, a purified, isolated or enriched C3 convertase is utilized. […] In some embodiments, a compound was first contacted with CVF:Bb, followed by addition of C3 substrates. As those skilled in the art will appreciate, products C3a and/or C3b could be detected through a number of technologies (e.g., antibodies specific for a product) and reduction of levels of one or both of them could be utilized to assess inhibition.

[1] = tested on: complement alternative pathway; assay: Wieslab AP assay (Complement Alternative Pathway ELISA, human serum as source of complement); assay type: biochemical; details: read-out: B: Wieslab AP IC50 (nM) (alternative pathway)
Source text: Among other things, the present disclosure provides compounds and compositions that can modulate complement activation. In some embodiments, provided technologies inhibit complement activation. In some embodiments, provided technologies inhibit C3 convertase. Various technologies are available for assessing provided compounds, compositions and methods. In some embodiments, a useful assay is an assay described below. In some embodiments, IC50 of a provided compound measured in an assay is about or no more than about 1000, 900, 800, 700, 600, 500, 400, 300, 200, 100, 90, 80, 70, 60, 50, 40, 30, 20, or 10 nM. In some embodiments, a useful assay is a biochemical assay assessing inhibition of C3 convertase activity by a provided compound. In some embodiments, a purified, isolated or enriched C3 convertase is utilized. In some embodiments, CVF:Bb (e.g., assembled from three components Cobra Venom Factor (CVF), Complement Factor B (FB) and Complement Factor D (FD)) was utilized (certain results are presented as “A” in the Table below). In some embodiments, a compound was first contacted with CVF:Bb, followed by addition of C3 substrates. As those skilled in the art will appreciate, products C3a and/or C3b could be detected through a number of technologies (e.g., antibodies specific for a product) and reduction of levels of one or both of them could be utilized to assess inhibition. In some embodiments, a useful assay is Wieslab© assay (certain results are presented as “B” in the Table below).
In some embodiments, classical and alternative pathway activity are assessed using Wieslab© technologies. In some embodiments, Wieslab© assay were performed with a commercially available kit, using a protocol adapted for measurement of complement inhibitory activity of compounds. In some embodiments, human serum was utilized as a positive control. In some embodiments, human serum serves as a source of complement proteins, and inhibition of complement activity of a serum by various compounds were assessed. In some embodiments, a kit is COMPL AP330, Complement Alternative Pathway ELISA, Eagle Biosciences. In some embodiments, a kit is COMPL CP310, Complement Classical Pathway ELISA, Eagle Biosciences. In some embodiments, kits are available from VWR (102994-104, Complement Alternative pathway ELISA, Eagle Biosciences, Inc.; 102994-106, Complement Classical pathway ELISA, Eagle Biosciences, Inc.).
In some embodiments, a useful procedure described below is utilized. • 1. Make fresh test compound stock at 1 mM. • 2. Test compound serial dilution: dilute the stock to working stock concentrations. Add DMSO to dilution buffer using same dilution factor for the working stock so the composition of all the serial diluted stock is the same. In some embodiments, stock was serial diluted from the working stock 1:4 (for classical pathway) or 1:2 (for alternative pathway) using new diluted dilution buffers. • 3. Dilute positive controls using the dilution buffer provided with the assay kit to 2× of the final conc., for classical pathway, 50.5×. Positive control is human serum, which contains complement proteins. • 4. Add 125 μL of test compound solution and 125 μL of diluted positive control to a 96 well polypropylene plate, mix gently and cover the plate and incubate at 4° C. for 30 min. • 5. Add 100 μL/well to the assay plate and incubate at 37° C. for 1 h. Typically, controls in the assay plate, for example, buffer alone for negative control, positive control alone to verify the complement activity of the reagent. • 6. Wash plate and add 100 μL/well conjugate, incubate at room temperature for 30 min. • 7. Wash plate and add 100 μL/well substrate, then incubate at room temperature for approximately 30 minutes. Periodically monitor the absorbance at 405 nm (OD405) in the positive control alone well. • 8. Once the OD405 is >1, read the whole plate immediately. Or stop the reaction by adding 100 μL of 5 mM EDTA to each well and read within 60 minutes.

Sequence of C3 convertase (CVF:Bb) (P00751 260-764 limits assumed): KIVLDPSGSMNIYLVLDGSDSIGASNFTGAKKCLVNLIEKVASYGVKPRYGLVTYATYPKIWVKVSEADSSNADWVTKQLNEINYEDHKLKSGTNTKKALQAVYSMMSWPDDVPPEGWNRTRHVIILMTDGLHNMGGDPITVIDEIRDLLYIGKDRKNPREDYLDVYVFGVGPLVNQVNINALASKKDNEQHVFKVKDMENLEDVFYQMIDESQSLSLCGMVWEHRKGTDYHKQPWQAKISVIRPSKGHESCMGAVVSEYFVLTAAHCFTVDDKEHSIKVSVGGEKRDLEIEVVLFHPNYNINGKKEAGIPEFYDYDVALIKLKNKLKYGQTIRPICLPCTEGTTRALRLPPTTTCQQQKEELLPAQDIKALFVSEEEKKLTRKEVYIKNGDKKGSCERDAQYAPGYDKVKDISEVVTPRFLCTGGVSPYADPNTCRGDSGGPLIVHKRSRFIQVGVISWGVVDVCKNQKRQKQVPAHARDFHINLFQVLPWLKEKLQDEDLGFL

SMILES | IC50 (C3 convertase (CVF:Bb)) [µM] | IC50 [1] [nM]
COc1cc(C)c2[nH]ccc2c1CN1CCN(Cc2ccccc2)CC1c1ccc(C(=O)O)cc1 (stereo not shown) | 5.24 | 
COc1cc(C)c2[nH]ccc2c1CN1CCN(S(C)(=O)=O)CC1c1ccc(C(=O)O)cc1 (stereo not shown) | 9.33 | 
COc1cc(C)c2[nH]ccc2c1CN1CCN(C(C)=O)CC1c1ccc(C(=O)O)cc1 (stereo not shown) | > 10 | 
COc1cc(C)c2[nH]ccc2c1CN1CCN(c2ccccc2)CC1c1ccc(C(=O)O)cc1 (stereo not shown) | > 10 | 
COc1cc(C)c2[nH]ccc2c1CN1CCNCC1c1ccc(C(=O)O)cc1 (stereo not shown) | > 10 | 
COc1cc(C)c2[nH]ccc2c1CN1CCN(C(C)C)CC1c1ccc(C(=O)O)cc1 (stereo not shown) | 0.652 | 
COc1cc(C)c2[nH]ccc2c1CN1CCN(CC2CC2)CC1c1ccc(C(=O)O)cc1 (stereo not shown) | 2.29 | 
COc1cc(C)c2[nH]ccc2c1CN1CCN(CC(C)C)CC1c1ccc(C(=O)O)cc1 (stereo not shown) | 4.67 | 
COc1cc(C)c2[nH]ccc2c1CN1CCN(C2CCC2)CC1c1ccc(C(=O)O)cc1 (stereo not shown) | 2.58 | 
COc1cc(C)c2[nH]ccc2c1C(=O)N1CCN(C)CC1c1ccc(C(=O)O)cc1 (stereo not shown) | > 10 | 
COc1cc(C)c2[nH]ccc2c1CN1CCN(C2CCCC2)CC1c1ccc(C(=O)O)cc1 (stereo not shown) | 3.88 | 
CCC(C)N1CCN(Cc2c(OC)cc(C)c3[nH]ccc23)C(c2ccc(C(=O)O)cc2)C1 (stereo not shown) | 0.405 | 
CCCCN1CCN(Cc2c(OC)cc(C)c3[nH]ccc23)C(c2ccc(C(=O)O)cc2)C1 (stereo not shown) | 0.98 | 
CCC(C)CN1CCN(Cc2c(OC)cc(C)c3[nH]ccc23)C(c2ccc(C(=O)O)cc2)C1 (stereo not shown) | 6.59 | 
COc1cc(C)c2[nH]ccc2c1CN1CCN(CCC(C)C)CC1c1ccc(C(=O)O)cc1 (stereo not shown) | 3.2 | 
COc1cc(C)c2[nH]ccc2c1CN1CCN(CC2CCCC2)CC1c1ccc(C(=O)O)cc1 (stereo not shown) | 3.08 | 
COc1cc(C)c2[nH]ccc2c1CN1CCN(C2COC2)CC1c1ccc(C(=O)O)cc1 (stereo not shown) | > 10 | 
COc1cc(C)c2[nH]ccc2c1CN1CCN(CCCF)CC1c1ccc(C(=O)O)cc1 (stereo not shown) | 0.119 | 153
Cc1ccc(CN2CCN(C)CC2c2ccc(C(=O)O)cc2)c2cc[nH]c12 (stereo not shown) | 0.479 | 
CN1CCN(Cc2cccc3[nH]ccc23)C(c2ccc(C(=O)O)cc2)C1 (stereo not shown) | > 10 | 

SMILES | IC50 (C3 convertase (CVF:Bb)) [µM] | IC50 [1] [nM]
C#CCN1CCN(Cc2c(OC)cc(C)c3[nH]ccc23)C(c2ccc(C(=O)O)cc2)C1 (stereo not shown) | 1.07 | 
COc1cc(C)c2[nH]ccc2c1CN1CCN(CCO)CC1c1ccc(C(=O)O)cc1 (stereo not shown) | 0.119 | 
COc1cc(C)c2[nH]ccc2c1CN1CCN(CC2CCC2)CC1c1ccc(C(=O)O)cc1 (stereo not shown) | 1.35 | 
COCCN1CCN(Cc2c(OC)cc(C)c3[nH]ccc23)C(c2ccc(C(=O)O)cc2)C1 (stereo not shown) | 0.221 | 
COc1cc(C)c2[nH]ccc2c1CN1CCN(CCF)C[C@@H]1c1ccc(C(=O)O)cc1 | 0.042 | 
COc1cc(C)c2[nH]ccc2c1CN1CCN(CC(F)F)C[C@H]1c1ccc(C(=O)O)cc1 | 0.028 | 
COc1cc(C)c2[nH]ccc2c1CN1CCN(Cc2ncc[nH]2)C[C@@H]1c1ccc(C(=O)O)cc1 |  | > 10000
COc1cc(C)c2[nH]ccc2c1CN1CCN(Cc2ncco2)C[C@H]1c1ccc(C(=O)O)cc1 | 9.11 | 
COc1cc(C)c2[nH]ccc2c1CN1CCN(Cc2ncco2)C[C@@H]1c1ccc(C(=O)O)cc1 | > 10 | 
COc1cc(C)c2[nH]ccc2c1CN1CCN(C(C)CC(F)(F)F)C[C@H]1c1ccc(C(=O)O)cc1 (stereo partly shown) |  | 110
Cc1cc(C2CC2)c(CN2CCN(CC(F)(F)F)C[C@H]2c2ccc(C(=O)O)cc2)c2cc[nH]c12 | 0.348 | 
COc1cc(C)c2[nH]ccc2c1CN1CCN(c2nccs2)C[C@H]1c1ccc(C(=O)O)cc1 | > 10 | 
COc1cc(Cl)c2[nH]ccc2c1CN1CCN(CC(F)(F)F)C[C@@H]1c1ccc(C(=O)O)cc1 | > 10 | 
COc1cc(Cl)c2[nH]ccc2c1CN1CCN(CC(F)(F)F)C[C@H]1c1ccc(C(=O)O)cc1 | 2.35 | 
COc1cc(Cl)c2[nH]ccc2c1CN1CCN(CC(F)(F)F)CC1c1ccc(C(=O)O)cc1 (stereo not shown) | 2.7 | 
COc1cc(C)c2[nH]ccc2c1CN1CC2(CC2)N(C)C[C@H]1c1ccc(C(=O)O)cc1 | 7.39 | 
COc1cc(C)c2[nH]ccc2c1CN1CCN(CCC(F)(F)F)C[C@H]1c1ccc(C(=O)NS(C)(=O)=O)cc1 | 0.056 | 65
COc1cc(C)c2[nH]ccc2c1CN1CCN(CC(F)(F)F)C[C@H]1c1ccc(C(=O)NS(C)(=O)=O)cc1 | 0.212 | 382
COc1cc(C)c2[nH]ccc2c1CN1CCN(CC(F)F)C[C@H]1c1ccc(C(=O)NS(=O)(=O)C2CC2)cc1 | 0.52 | 
Cc1cc(C2CC2)c(CN2CCN(CC(F)F)C[C@@H]2c2ccc(C(=O)O)cc2)c2cc[nH]c12 | 0.163 | 

SMILES | IC50 (C3 convertase (CVF:Bb)) [µM] | IC50 [1] [nM]
COc1cc(C)c2[nH]ccc2c1CN1CCN(CC(F)F)C[C@@H]1c1ccc(C(=O)O)cc1 | 0.08 | 
COc1cc(C)c2[nH]ccc2c1CN1CCN(c2cccnn2)C[C@H]1c1ccc(C(=O)O)cc1 | > 10 | 
COc1cc(C)c2[nH]ccc2c1CN1CCN(CC(C)(F)F)C[C@H]1c1ccc(C(=O)O)cc1 | 0.272 | 211
COc1cc(C)c2[nH]ccc2c1CN1CCN(CCC(F)F)C[C@H]1c1ccc(C(=O)O)cc1 | 0.027 | 27
COc1cc(C)c2[nH]ccc2c1CN1CC(=O)N(C)C[C@H]1c1ccc(C(=O)O)cc1 | 6.4 | 1000
COc1cc(C)c2[nH]ccc2c1CN1CCN(C)C(=O)[C@H]1c1ccc(C(=O)O)cc1 | 0.36 | 1000
COc1cc(C)c2[nH]ccc2c1CN1CCN(C(C)C(F)F)C[C@H]1c1ccc(C(=O)O)cc1 (stereo partly shown) | 0.228 | 230
COc1cc(C)c2[nH]ccc2c1CN1CCN(CCCF)C[C@H]1c1ccc(C(=O)O)cc1 | 0.099 | 
COc1cc(C)c2[nH]ccc2c1CN1CCN(CCO)C[C@H]1c1ccc(C(=O)O)cc1 | 0.35 | 128
[2H]C([2H])([2H])N1CCN(Cc2c(OC)cc(C)c3[nH]ccc23)[C@H](c2ccc(C(=O)O)cc2)C1 | 0.065 | 9
COc1cc(C)c2[nH]ccc2c1CN1CCN(c2ncccn2)C[C@H]1c1ccc(C(=O)O)cc1 | > 10 | 
COc1cc(C)c2[nH]ccc2c1CN1CCN(CCC(F)(F)F)C[C@H]1c1ccc(C(=O)O)cc1 | 0.029 | 13
COc1cc(C)c2[nH]ccc2c1CN1CCN(CC(F)F)C[C@H]1c1ccc(C(=O)NS(C)(=O)=O)cc1 | 0.243 | 8
COc1cc(C)c2[nH]ccc2c1CN1CCN(CC(F)(F)F)C[C@H]1c1ccc(C(=O)O)cc1 | 0.176 | 174
COc1cc(C)c2[nH]ccc2c1CN1CCN(C)C[C@@H]1c1ccc(C(=O)O)cc1 (single isomer, unassigned) | > 10 | 
COc1cc(C)c2[nH]ccc2c1CN1CCN(C2CC2)C[C@@H]1c1ccc(C(=O)O)cc1 (single isomer, unassigned) | 4.38 | 
COc1cc(C)c2[nH]ccc2c1CN1CCN(C2CC2)C[C@H]1c1ccc(C(=O)O)cc1 (single isomer, unassigned) | 0.096 | 
COc1cc(Cl)c2[nH]ccc2c1CN1CCN(CC(F)F)C[C@H]1c1ccc(C(=O)O)cc1 [drawing 436] | 1.49 | 
COc1cc(Cl)c2[nH]ccc2c1CN1CCN(CC(F)F)C[C@H]1c1ccc(C(=O)O)cc1 [drawing 446] | 3.15 | 
Cc1cc(C2CC2)c(CN2CCN(CC(F)F)C[C@H]2c2ccc(C(=O)O)cc2)c2cc[nH]c12 [drawing 450] |  | 396
